Reference: ChEMBL document CHEMBL4138123, “Design, synthesis and biological evaluation of novel pyrazolochalcones as potential modulators of PI3K/Akt/mTOR pathway and inducers of apoptosis in breast cancer cells” (Eur J Med Chem, 2017)

Key:
HL-60(TB) = assay: Cytotoxicity against human HL-60(TB) cells assessed as growth inhibition after 48 hrs by sulforhodamine B assay; assay type: functional; conditions: HL-60, 48 h
HOP-62 [1] = assay: Cytotoxicity against human HOP62 cells assessed as growth inhibition after 48 hrs by sulforhodamine B assay; assay type: functional; conditions: HOP-62, 48 h
NCI-H23 = assay: Cytotoxicity against human NCI-H23 cells assessed as growth inhibition after 48 hrs by sulforhodamine B assay; assay type: functional; conditions: NCI-H23, 48 h; for CC50: read-out: LC50 (the source's name)
U-251 = assay: Cytotoxicity against human U251 cells assessed as growth inhibition after 48 hrs by sulforhodamine B assay; assay type: functional; conditions: U-251, 48 h
BT-549 [2] = assay: Cytotoxicity against human BT549 cells assessed as growth inhibition after 48 hrs by sulforhodamine B assay; assay type: functional; conditions: BT-549, 48 h
T47D [3] = assay: Cytotoxicity against human T47D cells assessed as growth inhibition after 48 hrs by sulforhodamine B assay; assay type: functional
MDA-MB-468 = assay: Cytotoxicity against human MDA-MB-468 cells assessed as growth inhibition after 48 hrs by sulforhodamine B assay; assay type: functional; conditions: MDA-MB-468, 48 h
MCF7 = assay: Cytotoxicity against human MCF7 cells assessed as growth inhibition after 48 hrs by MTT assay; assay type: functional, cell-based; conditions: MCF7, 48 h
OVCAR-5 = assay: Cytotoxicity against human OVCAR5 cells assessed as cell growth at 0.01 uM after 48 hrs by sulforhodamine B assay relative to control; assay type: functional; conditions: OVCAR-5, 48 h, read-out: Activity
OVCAR-4 [4] = assay: Cytotoxicity against human OVCAR4 cells assessed as cell growth at 0.01 uM after 48 hrs by sulforhodamine B assay relative to control; assay type: functional; conditions: OVCAR-4, 48 h, read-out: Activity
HCC 2998 = assay: Cytotoxicity against human HCC2998 cells assessed as cell growth at 0.01 uM after 48 hrs by sulforhodamine B assay relative to control; assay type: functional; conditions: HCC 2998, 48 h, read-out: Activity
MOLT-4 [5] = assay: Cytotoxicity against human MOLT4 cells assessed as cell growth at 0.01 uM after 48 hrs by sulforhodamine B assay relative to control; assay type: functional; conditions: MOLT-4, 48 h, read-out: Activity
PC-3 [6] = assay: Cytotoxicity against human PC3 cells assessed as cell growth at 0.01 uM after 48 hrs by sulforhodamine B assay relative to control; assay type: functional; conditions: PC-3, 48 h, read-out: Activity
NCI-H460 = assay: Cytotoxicity against human NCI-H460 cells assessed as cell growth at 0.1 uM after 48 hrs by sulforhodamine B assay relative to control; assay type: functional; conditions: NCI-H460, 48 h, read-out: Activity
SF-268 = assay: Cytotoxicity against human SF268 cells assessed as cell growth at 0.1 uM after 48 hrs by sulforhodamine B assay relative to control; assay type: functional; conditions: SF-268, 48 h, read-out: Activity
T47D [7] = assay: Cytotoxicity against human T47D cells assessed as cell growth at 0.1 uM after 48 hrs by sulforhodamine B assay relative to control; assay type: functional; conditions: read-out: Activity
HCT-15 [8] = assay: Cytotoxicity against human HCT15 cells assessed as cell growth at 1 uM after 48 hrs by sulforhodamine B assay relative to control; assay type: functional; conditions: HCT-15, 48 h, read-out: Activity
IGROV-1 = assay: Cytotoxicity against human IGROV1 cells assessed as cell growth at 1 uM after 48 hrs by sulforhodamine B assay relative to control; assay type: functional; conditions: IGROV-1, 48 h, read-out: Activity
BT-549 [9] = assay: Cytotoxicity against human BT549 cells assessed as cell growth at 1 uM after 48 hrs by sulforhodamine B assay relative to control; assay type: functional; conditions: BT-549, 48 h, read-out: Activity
NCI-H226 = assay: Cytotoxicity against human NCI-H226 cells assessed as cell growth at 10 uM after 48 hrs by sulforhodamine B assay relative to control; assay type: functional; conditions: NCI-H226, 48 h, read-out: Activity
NCI-H522 = assay: Cytotoxicity against human NCI-H522 cells assessed as cell growth at 10 uM after 48 hrs by sulforhodamine B assay relative to control; assay type: functional; conditions: NCI-H522, 48 h, read-out: Activity
SF-539 = assay: Cytotoxicity against human SF539 cells assessed as cell growth at 10 uM after 48 hrs by sulforhodamine B assay relative to control; assay type: functional; conditions: SF-539, 48 h, read-out: Activity
SK-MEL-5 = assay: Cytotoxicity against human SK-MEL-5 cells assessed as cell growth at 10 uM after 48 hrs by sulforhodamine B assay relative to control; assay type: functional; conditions: SK-MEL-5, 48 h, read-out: Activity
Hs-578T = assay: Cytotoxicity against human Hs 578T cells assessed as cell growth at 10 uM after 48 hrs by sulforhodamine B assay relative to control; assay type: functional; conditions: read-out: Activity
MOLT-4 [10] = assay: Cytotoxicity against human MOLT4 cells assessed as cell growth at 100 uM after 48 hrs by sulforhodamine B assay relative to control; assay type: functional; conditions: MOLT-4, 48 h, read-out: Activity
HOP-62 [11] = assay: Cytotoxicity against human HOP62 cells assessed as cell growth at 100 uM after 48 hrs by sulforhodamine B assay relative to control; assay type: functional; conditions: HOP-62, 48 h, read-out: Activity
HCT-116 = assay: Cytotoxicity against human HCT116 cells assessed as cell growth at 100 uM after 48 hrs by sulforhodamine B assay relative to control; assay type: functional; conditions: HCT-116, 48 h, read-out: Activity
HCT-15 [12] = assay: Cytotoxicity against human HCT15 cells assessed as cell growth at 100 uM after 48 hrs by sulforhodamine B assay relative to control; assay type: functional; conditions: HCT-15, 48 h, read-out: Activity
OVCAR-4 [13] = assay: Cytotoxicity against human OVCAR4 cells assessed as cell growth at 100 uM after 48 hrs by sulforhodamine B assay relative to control; assay type: functional; conditions: OVCAR-4, 48 h, read-out: Activity
OVCAR-8 = assay: Cytotoxicity against human OVCAR8 cells assessed as cell growth at 100 uM after 48 hrs by sulforhodamine B assay relative to control; assay type: functional; conditions: OVCAR-8, 48 h, read-out: Activity
SK-OV-3 = assay: Cytotoxicity against human SKOV3 cells assessed as cell growth at 100 uM after 48 hrs by sulforhodamine B assay relative to control; assay type: functional; conditions: SK-OV-3, 48 h, read-out: Activity
786-0 = assay: Cytotoxicity against human 786-0 cells assessed as cell growth at 100 uM after 48 hrs by sulforhodamine B assay relative to control; assay type: functional; conditions: 786-0, 48 h, read-out: Activity
PC-3 [14] = assay: Cytotoxicity against human PC3 cells assessed as cell growth at 100 uM after 48 hrs by sulforhodamine B assay relative to control; assay type: functional; conditions: PC-3, 48 h, read-out: Activity
DU-145 = assay: Cytotoxicity against human DU145 cells assessed as cell growth at 100 uM after 48 hrs by sulforhodamine B assay relative to control; assay type: functional; conditions: DU-145, 48 h, read-out: Activity
T47D [15] = assay: Cytotoxicity against human T47D cells assessed as cell growth at 100 uM after 48 hrs by sulforhodamine B assay relative to control; assay type: functional; conditions: read-out: Activity

## COc1ccc(C(=O)/C=C/c2cc(-c3ccc4c(c3)OCO4)n[nH]2)cc1OC
HL-60(TB)
  LC50: > 100 µM
  TGI: 11.8 µM
HOP-62 [1]
  LC50: 25.8 µM
  TGI: 5.6 µM
NCI-H23
  TGI: 19.6 µM
  CC50: 66 µM
U-251
  LC50: 23.8 µM
  TGI: 5.37 µM
BT-549 [2]
  GI50: 1970 nM
  LC50 (concentration killing 50% of cells): 8.98 µM
  TGI: 4.21 µM
T47D [3]
  GI50: 3230 nM
  LC50: > 100 µM
  TGI: 26.1 µM
MDA-MB-468
  GI50: 1860 nM
  LC50: 13.5 µM
  TGI: 4.52 µM
MCF7
  IC50: 2500 nM
OVCAR-5
  growth at 0.01 µM: 96%
OVCAR-4 [4]
  growth at 0.01 µM: 96%
HCC 2998
  growth at 0.01 µM: 98%
MOLT-4 [5]
  growth at 0.01 µM: 97%
PC-3 [6]
  growth at 0.01 µM: 99%
NCI-H460
  growth at 0.1 µM: 102%
SF-268
  growth at 0.1 µM: 94%
T47D [7]
  growth at 0.1 µM: 94%
HCT-15 [8]
  growth at 1 µM: 86%
IGROV-1
  growth at 1 µM: 93%
BT-549 [9]
  growth at 1 µM: 95%
NCI-H226
  growth at 10 µM: 1%
NCI-H522
  growth at 10 µM: -45%
SF-539
  growth at 10 µM: -47%
SK-MEL-5
  growth at 10 µM: 41%
Hs-578T
  growth at 10 µM: -9%
MOLT-4 [10]
  growth at 100 µM: -20%
HOP-62 [11]
  growth at 100 µM: -80%
HCT-116
  growth at 100 µM: -64%
HCT-15 [12]
  growth at 100 µM: 2%
OVCAR-4 [13]
  growth at 100 µM: -12%
OVCAR-8
  growth at 100 µM: -65%
SK-OV-3
  growth at 100 µM: -23%
786-0
  growth at 100 µM: -83%
PC-3 [14]
  growth at 100 µM: -45%
DU-145
  growth at 100 µM: -97%
T47D [15]
  growth at 100 µM: -31%

## COc1cc2c(cc1OC)C(=O)/C(=C/c1cc(-c3ccc4c(c3)OCO4)n[nH]1)C2
HL-60(TB)
  GI50: 2070 nM
  LC50: > 100 µM
  TGI: 5.59 µM
HOP-62 [1]
  GI50: 1530 nM
  LC50: 5.72 µM
  TGI: 2.96 µM
NCI-H23
  GI50: 1870 nM
  TGI: 3.91 µM
  CC50: 8.19 µM
U-251
  GI50: 1090 nM
  LC50: 4.9 µM
  TGI: 2.31 µM
BT-549 [2]
  GI50: 1620 nM
  LC50 (concentration killing 50% of cells): 5.71 µM
  TGI: 3.04 µM
T47D [3]
  GI50: 1310 nM
  LC50: 5.62 µM
  TGI: 2.72 µM
MDA-MB-468
  GI50: 1070 nM
  LC50: 5.44 µM
  TGI: 2.41 µM
MCF7
  IC50: 1020 nM
OVCAR-5
  growth at 0.01 µM: 102%
OVCAR-4 [4]
  growth at 0.01 µM: 101%
HCC 2998
  growth at 0.01 µM: 92%
MOLT-4 [5]
  growth at 0.01 µM: 100%
PC-3 [6]
  growth at 0.01 µM: 94%
NCI-H460
  growth at 0.1 µM: 101%
SF-268
  growth at 0.1 µM: 96%
T47D [7]
  growth at 0.1 µM: 95%
HCT-15 [8]
  growth at 1 µM: 56%
IGROV-1
  growth at 1 µM: 86%
BT-549 [9]
  growth at 1 µM: 88%
NCI-H226
  growth at 10 µM: -72%
NCI-H522
  growth at 10 µM: -80%
SF-539
  growth at 10 µM: -96%
SK-MEL-5
  growth at 10 µM: -98%
Hs-578T
  growth at 10 µM: -9%
MOLT-4 [10]
  growth at 100 µM: -17%
HOP-62 [11]
  growth at 100 µM: -92%
HCT-116
  growth at 100 µM: -52%
HCT-15 [12]
  growth at 100 µM: -69%
OVCAR-4 [13]
  growth at 100 µM: -98%
OVCAR-8
  growth at 100 µM: -94%
SK-OV-3
  growth at 100 µM: -97%
786-0
  growth at 100 µM: -93%
PC-3 [14]
  growth at 100 µM: -79%
DU-145
  growth at 100 µM: -88%
T47D [15]
  growth at 100 µM: -93%
